Literature values in patent publication US12514830B2, “Idebenone for the treatment of Acute Respiratory Distress Syndrome (ARDS) in patients diagnosed with a coronavirus infection” (BEMIDO SA, priority 2020, dated 2026).

System: patients with Duchenne muscular dystrophy (DMD)
Conditions: long-term treatment, for up to 6 years, real-world setting

COC1=C(OC)C(=O)C(CCCCCCCCCCO)=C(C)C1=O [idebenone, 2-(10-hydroxydecyl)-5,6-dimethoxy-3-methyl-cyclohexa-2,5-diene-1,4-dione]
rate of respiratory function loss: consistently reduced the rate of respiratory function loss
